Reference: patent US20130323776A1, “CARRIER PEPTIDE FRAGMENT AND USE THEREOF” (Toagosei Co. Ltd., priority 2009, published 2013)
Ends that are not written are not given here. * marks the point of attachment. FITC = O=C1OC2(c3ccc(O)cc3Oc3cc(O)ccc32)c2ccc(NC(=S)*)cc21; Acp = not defined here

What was measured:
[1] = system: Human neonate foreskin fibroblasts (ATCC Catalogue No. CRL-2097); assay: Evaluation of cell membrane permeability function, confocal laser scanning microscopy of fluorescently labeled peptide; assay type: cell-based; conditions: 1 μM peptide, 1 or 4 hours culture; for penetration of the cell membrane from outside the cell and transfer into the cytoplasm: methanol fixed
Method: Human neonate foreskin fibroblasts (ATCC Catalogue No. CRL-2097) were used as the eukaryotic cells, and the cell membrane permeability capability of the samples (constructs for transferring a foreign substance) obtained in Example 1 above was investigated.
More specifically, the abovementioned fibroblasts were cultured in a liquid mixture of 90% Eagle MEM culture medium (containing 0.1% nonessential amino acids, 2 mM L-glutamine, 1 mM sodium pyruvate, and 1.5 g/L sodium hydrogen carbonate) and 10% serum (FBS) as the culture medium.
The cultured cells were trypsinized for 1 min at 37° C. with a 0.25% trypsin solution. After the abovementioned treatment, the trypsin was deactivated with FBS-containing medium, and a cell suspension (test sample for foreign substance transfer) was prepared by adjusting the cell concentration to approximately 5×10^4 cells/mL with the culture medium.
Next, 0.5 mL of the abovementioned cell suspension was placed in a designated cell culturing container (culture slide with a surface coating of 0.1% gelatin), and the cells were incubated overnight at 37° C. in a 5% CO2 atmosphere. After incubation the medium was replaced with fresh culture medium, and the 1 mM sample solutions of each of the samples prepared in abovementioned Example 1 were added to a cell culture container so that the final sample concentration (peptide concentration) would be 1 μM. In this case 0.5 μL of sample solution was added to the container. Then the samples were incubated at 37° C. for either 1 or 4 hours in a 5% CO2 atmosphere.
The cells after 1 hour of culture and the cells after 4 hours of culture were each rinsed in PBS and fixed with methanol (on ice for 10 min).
Next the methanol-fixed samples (cells) were mounted using Prolong® Gold Antifade Reagent (Invitrogen) that contains the nuclear stain DAPI (4′,6-diamidino-2-phenylindole). Then the localization within the cells of the peptide bonded to the fluorescent dye (i.e., fluorescently labeled peptide) in each test sample (i.e., the abovementioned mounted test samples after methanol fixation) was investigated using a confocal scanning laser microscope. Part of the results are presented herein as micrographs.

[2] = system: human iPS cells (cell line 201B2-082008KU); assay: Evaluation of cell membrane permeability function in iPS cells, confocal laser scanning microscopy of fluorescently labeled peptide; assay type: cell-based; conditions: 1 μM peptide, 1 or 4 hours culture; for penetration of the cell membrane from outside the cell and transfer into the cytoplasm of iPS cells: human iPS cells on MEF feeder cells, methanol fixed; for foreign substance transfer efficiency toward stem cells such as iPS cells: human iPS cells
Source text: The target cells for transferring the foreign substance were changed from human neonate foreskin fibroblasts to human iPS cells (human induced pluripotent stem cells), and the cell membrane permeability capability of the two samples (constructs for transferring a foreign substance) obtained in Example 1 above was investigated. It should also be noted that the iPS cells (cell line 201B2-082008KU) and the mouse embryonic fibroblast feeder cells (cell line SNL 76/7, hereinafter “MEF”) used in this example were provided by the Yamanaka Research Laboratory of the Institute for Frontier Medical Sciences, Kyoto University (professor Shinya Yamanaka).
First the obtained MEF were inactivated by a mitomycin C treatment (3 hours) and then trypsinised in a 0.25% trypsin solution containing 1 mM EDTA. After the above treatment, the trypsin was deactivated with culture medium containing FBS, and the MEF were adjusted to a suitable cell density using D-MEM medium (Dulbecco's Modified Eagle Medium: Gibco) containing MEF culture medium (7% FBS: Gibco), 2 mM L-glutamine (Gibco), 50 units/mL penicillin, and 50 μg/mL streptomycin (Gibco), and the abovementioned MEF were seeded onto a culture container (in the form of a culture slide or plate) with a surface coating of 0.1% gelatin. In this case, the MEF were seeded so that the cell density would be approximately 1.25×10^5 cells/mL. Next, the abovementioned cell culture containers were incubated overnight at 37° C. in a 5% CO2 atmosphere.
Thereafter, the feeder cells were prepared by removing the MEF culture medium and rinsing with PBS.
Separately, CTK solution (0.25% trypsin solution containing 0.1 mg/mL collagenase IV (Gibco), 1 mM calcium chloride, and 20% KSR (KnockOut® Serum Replacement)) was added to the obtained iPS cell line, the MEF were peeled therefrom, and the cells were rinsed with PBS.
Next, 1 mL hESC culture medium (i.e., human ES cell medium, in this case, DMEM/F12 culture medium (Gibco) containing 20% KSR (Gibco), 2 mM L-glutamine (Gibco), 0.1% nonessential amino acids (Gibco), 0.1 mM 2-mercaptoethanol (Gibco), 50 units/mL penicillin, and 50 μg/mL streptomycin (Invitrogen, 4 ng/mL bFGF (basic fibroblast growth factor)) was added, the iPS cells were peeled off using a cell scraper, and the colony was broken apart by gentle pipetting.
A suspension of iPS cells obtained in this manner was seeded onto the feeder cells in the culture containers that had been prepared as described above. Then, the above-mentioned hESC medium was added, and the cell culture containers were incubated overnight at 37° C. in a 5% CO2 atmosphere.
After incubation overnight, the culture medium was removed from the culture containers, and the abovementioned hESC medium to which one of the 1 mM sample solutions prepared in abovementioned. Example 1 had been added to make a final sample concentration (pipetted concentration) of 1 μM was added to the culture containers. Then the samples were incubated at 37° C. for either 1 or 4 hours in a 5% CO2 atmosphere.
The cells after 1 hour of culture and cells after 4 hours of culture were each rinsed in PBS (phosphate buffered saline) and fixed with methanol (on ice for 10 min).
Next, the same treatment as in Example 2 was performed, and the localization within the iPS cells of the peptide that was bonded to the fluorescent dye (i.e., fluorescently labeled) was investigated using a confocal scanning laser microscope. Part of the results are presented herein as micrographs.

Row | Substance | penetration of the cell membrane from outside the cell and transfer into the cytoplasm [1] | penetration of the cell membrane from outside the cell and transfer into the cytoplasm of iPS cells [2] | foreign substance transfer efficiency toward somatic cells such as fibroblasts [1] | foreign substance transfer efficiency toward stem cells such as iPS cells [2]
1 | (FITC-Acp)-IMRRRGL ({FITC-Acp}-IMRRRGL; not fully specified (C-terminus); printed as (FITC-Acp)-IMRRRGL; reading uncertain) [Sample No. 7] | almost no passage through the cell membrane | almost no passage through the cell membrane | – | –
2 | (FAM)-MAKSIRSKHRRQMRMMKRE ({FAM}-MAKSIRSKHRRQMRMMKRE; not fully specified (C-terminus); printed as (FAM)-MAKSIRSKHRRQMRMMKRE) [Sample No. 2] | transferred into the cytoplasm | – | – | –
3 | (FITC-Acp)-MARRRRHRGPRRPRPP ({FITC-Acp}-MARRRRHRGPRRPRPP; reading uncertain; also: printed as (FITC-Acp)-MARRRRHRGPRRPRPP) [Sample No. 3] | transferred into the cytoplasm | – | – | –
4 | (FITC-Acp)-KKLKKRNK ({FITC-Acp}-KKLKKRNK; not fully specified (C-terminus); printed as (FITC-Acp)-KKLKKRNK; reading uncertain) [Sample No. 8] | almost no passage through the cell membrane | almost no passage through the cell membrane | – | –
5 | (FAM)-MQRKPTIRRKNLRLRRK ({FAM}-MQRKPTIRRKNLRLRRK; not fully specified (C-terminus); printed as (FAM)-MQRKPTIRRKNLRLRRK) [Sample No. 6] | transferred into the cytoplasm | transferred into the cytoplasm of iPS cells | extremely high | extremely high
6 | (FITC-Acp)-RRRKRNRDARRRRRKQ ({FITC-Acp}-RRRKRNRDARRRRRKQ; reading uncertain; also: printed as (FITC-Acp)-RRRKRNRDARRRRRKQ) [Sample No. 5] | transferred into the cytoplasm | – | – | –
7 | (FITC-Acp)-RSRKYTSWYVALKRTLKERCLQVVRSLVK ({FITC-Acp}-RSRKYTSWYVALKRTLKERCLQVVRSLVK; not fully specified (C-terminus); printed as (FITC-Acp)-RSRKYTSWYVALKRTLKERCLQVVRSLVK; reading uncertain) [Sample No. 14] | transferred into the cytoplasm | transferred into the cytoplasm of iPS cells | extremely high | –
8 | (FITC-Acp)-GRCRRLANFGPRKRRRRRR ({FITC-Acp}-GRCRRLANFGPRKRRRRRR; not fully specified (C-terminus); printed as (FITC-Acp)-GRCRRLANFGPRKRRRRRR; reading uncertain) [Sample No. 4] | transferred into the cytoplasm | transferred into the cytoplasm of iPS cells | extremely high | extremely high
